From PubChem BioAssay (NCI)
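Here, GI50 denotes the concentration required for 50% inhibition of growth. The concentration for full growth arrest is given as TGI.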

Columns and labels:
Test in all cases: inhibition of tumour cell growth, NCI panel, 384-well format
786-0 renal = test system: 786-0 renal
A498 renal = test system: A498 renal
A549 NSCLC = test system: A549 NSCLC
ACHN renal = test system: ACHN renal
BT-549 breast = test system: BT-549 breast
CAKI-1 renal = test system: CAKI-1 renal
CCRF-CEM leukemia = test system: CCRF-CEM leukemia
COLO 205 colon = test system: COLO 205 colon
DU-145 prostate = test system: DU-145 prostate
EKVX NSCLC = test system: EKVX NSCLC
HCC-2998 colon = test system: HCC-2998 colon
HCT-116 colon = test system: HCT-116 colon
HCT-15 colon = test system: HCT-15 colon
HL-60(TB) leukemia = test system: HL-60(TB) leukemia
HOP-62 NSCLC = test system: HOP-62 NSCLC
HOP-92 NSCLC = test system: HOP-92 NSCLC
HS 578T breast = test system: HS 578T breast
HT29 colon = test system: HT29 colon
IGROV1 ovarian = test system: IGROV1 ovarian
K-562 leukemia = test system: K-562 leukemia
KM12 colon = test system: KM12 colon
LOX IMVI melanoma = test system: LOX IMVI melanoma
M14 melanoma = test system: M14 melanoma
MALME-3M melanoma = test system: MALME-3M melanoma
MCF7 breast = test system: MCF7 breast
MDA-MB-231 breast = test system: MDA-MB-231 breast
MDA-MB-435 melanoma = test system: MDA-MB-435 melanoma
MDA-MB-468 breast = test system: MDA-MB-468 breast
MOLT-4 leukemia = test system: MOLT-4 leukemia
NCI-H226 lung = test system: NCI-H226 lung
NCI-H23 lung = test system: NCI-H23 lung
NCI-H322M lung = test system: NCI-H322M lung
NCI-H460 NSCLC = test system: NCI-H460 NSCLC
NCI-H522 lung = test system: NCI-H522 lung
NCI/ADR-RES ovarian = test system: NCI/ADR-RES ovarian
OVCAR-3 ovarian = test system: OVCAR-3 ovarian
OVCAR-4 ovarian = test system: OVCAR-4 ovarian
OVCAR-5 ovarian = test system: OVCAR-5 ovarian
OVCAR-8 ovarian = test system: OVCAR-8 ovarian
PC-3 prostate = test system: PC-3 prostate
RPMI-8226 leukemia = test system: RPMI-8226 leukemia
RXF 393 renal = test system: RXF 393 renal
SF-268 CNS = test system: SF-268 CNS
SF-295 CNS = test system: SF-295 CNS
SF-539 CNS = test system: SF-539 CNS
SK-MEL-28 melanoma = test system: SK-MEL-28 melanoma
SK-MEL-5 melanoma = test system: SK-MEL-5 melanoma
SK-OV-3 ovarian = test system: SK-OV-3 ovarian
SN12C renal = test system: SN12C renal
SNB-19 CNS = test system: SNB-19 CNS
SNB-75 CNS = test system: SNB-75 CNS
SR leukemia = test system: SR leukemia
SW-620 colon = test system: SW-620 colon
T-47D breast = test system: T-47D breast
TK-10 renal = test system: TK-10 renal
U251 glioblastoma = test system: U251 glioblastoma
UACC-257 melanoma = test system: UACC-257 melanoma
UO-31 renal = test system: UO-31 renal

O=C(N[C@@H](Cc1coc2ccccc12)B(O)O)[C@@H]1C[C@H]2CC[C@@H]1O2
GI50 ([…]-0 renal): 2.74 µM | TGI (786-0 renal): 13.9 µM | GI50 (A498 renal): 1.62 µM | TGI (A498 renal): 5.91 µM | GI50 (A549 NSCLC): 10.7 µM | TGI (A549 NSCLC): > 100 µM | GI50 (ACHN renal): 1.09 µM | TGI (ACHN renal): > 100 µM | GI50 (BT-549 breast): 2.26 µM | TGI (BT-549 breast): 5.49 µM | GI50 (CAKI-1 renal): 3.24 µM | TGI (CAKI-1 renal): > 100 µM | GI50 (CCRF-CEM leukemia): 0.197 µM | TGI (CCRF-CEM leukemia): 0.504 µM | GI50 (COLO 205 colon): 21.2 µM | TGI (COLO 205 colon): > 100 µM | GI50 (DU-145 prostate): 4.28 µM | TGI (DU-145 prostate): > 100 µM | GI50 (EKVX NSCLC): 6.89 µM | TGI (EKVX NSCLC): 91.9 µM | GI50 (HCC-2998 colon): 4.45 µM | TGI (HCC-2998 colon): 20.9 µM | GI50 (HCT-116 colon): 2.08 µM | TGI (HCT-116 colon): 8.46 µM | GI50 (HCT-15 colon): 4.26 µM | TGI (HCT-15 colon): 15.3 µM | GI50 (HL-60(TB) leukemia): 0.355 µM | TGI (HL-60(TB) leukemia): 1.36 µM | GI50 (HOP-62 NSCLC): 3.87 µM | TGI (HOP-62 NSCLC): 17.1 µM | GI50 (HOP-92 NSCLC): 13.9 µM | TGI (HOP-92 NSCLC): 77.7 µM | GI50 (HS 578T breast): 1.8 µM | TGI (HS 578T breast): 3.69 µM | GI50 (HT29 colon): 1.83 µM | TGI (HT29 colon): 4.44 µM | GI50 (IGROV1 ovarian): 18.6 µM | TGI (IGROV1 ovarian): 92.1 µM | GI50 (K-562 leukemia): 7.21 µM | TGI (K-562 leukemia): > 100 µM | GI50 (KM12 colon): 5.64 µM | TGI (KM12 colon): 23.2 µM | GI50 (LOX IMVI melanoma): 3.99 µM | TGI (LOX IMVI melanoma): 16.8 µM | GI50 (M14 melanoma): 2.73 µM | TGI (M14 melanoma): 9.07 µM | GI50 (MALME-3M melanoma): 1.17 µM | TGI (MALME-3M melanoma): 3.19 µM | GI50 (MCF7 breast): 1.68 µM | TGI (MCF7 breast): > 100 µM | GI50 (MDA-MB-231 breast): 4.86 µM | TGI (MDA-MB-231 breast): 23.3 µM | GI50 (MDA-MB-435 melanoma): 1.45 µM | TGI (MDA-MB-435 melanoma): 2.99 µM | GI50 (MDA-MB-468 breast): 2.29 µM | TGI (MDA-MB-468 breast): 9.43 µM | GI50 (MOLT-4 leukemia): 0.277 µM | TGI (MOLT-4 leukemia): 1.13 µM | GI50 (NCI-H226 lung): 0.163 µM | TGI (NCI-H226 lung): 0.439 µM | GI50 (NCI-H23 lung): 3.7 µM | TGI (NCI-H23 lung): 27.3 µM | GI50 (NCI-H322M lung): 44.8 µM | TGI (NCI-H322M lung): > 100 µM | GI50 (NCI-H460 NSCLC): 16.7 µM | TGI (NCI-H460 NSCLC): > 100 µM | GI50 (NCI-H522 lung): 2 µM | TGI (NCI-H522 lung): 4.74 µM | GI50 (NCI/ADR-RES ovarian): 34.8 µM | TGI (NCI/ADR-RES ovarian): > 100 µM | GI50 (OVCAR-3 ovarian): 1.38 µM | TGI (OVCAR-3 ovarian): 3.8 µM | GI50 (OVCAR-4 ovarian): 7.3 µM | TGI (OVCAR-4 ovarian): 60.6 µM | GI50 (OVCAR-5 ovarian): 8.44 µM | TGI (OVCAR-5 ovarian): > 100 µM | GI50 (OVCAR-8 ovarian): 30.9 µM | TGI (OVCAR-8 ovarian): > 100 µM | GI50 (PC-3 prostate): 27.6 µM | TGI (PC-3 prostate): > 100 µM | GI50 (RPMI-8226 leukemia): 0.173 µM | TGI (RPMI-8226 leukemia): 0.359 µM | GI50 (RXF 393 renal): 1.22 µM | TGI (RXF 393 renal): 2.91 µM | GI50 (SF-268 CNS): 2.45 µM | TGI (SF-268 CNS): 7.43 µM | GI50 (SF-295 CNS): 1.49 µM | TGI (SF-295 CNS): 4.35 µM | GI50 (SF-539 CNS): 1.51 µM | TGI (SF-539 CNS): 2.92 µM | GI50 (SK-MEL-28 melanoma): 1.33 µM | TGI (SK-MEL-28 melanoma): 4.17 µM | GI50 (SK-MEL-5 melanoma): 2.36 µM | TGI (SK-MEL-5 melanoma): 7.59 µM | GI50 (SK-OV-3 ovarian): 4.71 µM | TGI (SK-OV-3 ovarian): 55.7 µM | GI50 (SN12C renal): 10.7 µM | TGI (SN12C renal): > 100 µM | GI50 (SNB-19 CNS): 4.7 µM | TGI (SNB-19 CNS): 23.1 µM | GI50 (SNB-75 CNS): 2.99 µM | TGI (SNB-75 CNS): 11.2 µM | GI50 (SR leukemia): 0.219 µM | TGI (SR leukemia): 0.605 µM | GI50 (SW-620 colon): 1.81 µM | TGI (SW-620 colon): 3.83 µM | GI50 (T-47D breast): 5.11 µM | TGI (T-47D breast): 45.8 µM | GI50 (TK-10 renal): 1.84 µM | TGI (TK-10 renal): 4.86 µM | GI50 (U251 glioblastoma): 14.8 µM | TGI (U251 glioblastoma): 52.5 µM | GI50 (UACC-257 melanoma): 1.44 µM | TGI (UACC-257 melanoma): 5.25 µM | GI50 (UO-31 renal): 3.36 µM | TGI (UO-31 renal): 13.4 µM
